Experimental data published in patent publication US3945994A, “Novel acid compounds” (Gist-Brocades N.V., priority 1973, dated 1976).
In brackets after ≈: the same amount, converted by molar mass.

Tests used:
Assay type in all cases: cell-based
[1] = system: Bacillus subtilis ATCC 6633; details: ATCC6633, agar serial dilution, 24 hours at 37°C
[2] = system: Streptococcus faecalis L 80; details: Enterococcus faecalis, L80; agar serial dilution, 24 hours at 37°C
[3] = system: Pseudomonas aeruginosa Wyeth A 1058; details: WYETHA1058, agar serial dilution, 24 hours at 37°C
Proteus morganii 2241 = details: Morganella morganii, agar serial dilution, 24 hours at 37°C
[4] = system: Staphylococcus aureus A 355'; details: agar serial dilution, 24 hours at 37°C
[5] = system: Pseudomonas aeruginosa 2396; details: agar serial dilution, 24 hours at 37°C
[6] = system: Staphylococcus aureus A 2000; details: A2000, agar serial dilution, 24 hours at 37°C
[7] = system: Klebsiella pneumoniae A 809; details: A809, agar serial dilution, 24 hours at 37°C
Proteus mirabilis A 1200 = details: A1200, agar serial dilution, 24 hours at 37°C
[8] = system: Salmonella typhimurium R 127; details: Salmonella enterica, agar serial dilution, 24 hours at 37°C
[9] = system: Pasteurella multocida A 723; details: A723, agar serial dilution, 24 hours at 37°C
[10] = system: Streptococcus haemolyticus A 266; details: A266, agar serial dilution, 24 hours at 37°C
[11] = system: Pseudomonas aeruginosa H 10; details: H10, agar serial dilution, 24 hours at 37°C
Proteus rettgeri A 821 = details: Providencia rettgeri, A821; agar serial dilution, 24 hours at 37°C
[12] = system: Staphylococcus aureus A 321; details: A321, agar serial dilution, 24 hours at 37°C
Escherichia coli U 20 = details: U20, agar serial dilution, 24 hours at 37°C
Proteus mirabilis H 3 = details: H3, agar serial dilution, 24 hours at 37°C
Salmonella dublin P 43 = details: Salmonella enterica, P43; agar serial dilution, 24 hours at 37°C
[13] = system: Staphylococcus aureus A 2001; details: A2001, agar serial dilution, 24 hours at 37°C
[14] = system: Diplococcus pneumoniae L 54; details: Streptococcus pneumoniae, L54; agar serial dilution, 24 hours at 37°C

SMILES: CC(C)NS(=O)(=O)NC(=O)N[C@@H](C(=O)N[C@@H]1C(=O)N2[C@@H]1SC(C)(C)[C@@H]2C(=O)O)c1ccccc1 [IX, D-6-[α-{3-(isopropylaminosulfonyl)-ureido}-benzylcarbonamido]-penicillanic acid]
- MIC [1]: 1.5 µg/mL (≈ 2.92 µM)
- MIC [2]: 25 µg/mL (≈ 48.7 µM)
- MIC [3]: > 100 µg/mL
- MIC (Proteus morganii 2241): 100 µg/mL (≈ 195 µM)
- MIC [4]: 25 µg/mL (≈ 48.7 µM)
- MIC [5]: > 100 µg/mL
- MIC [6]: 25 µg/mL (≈ 48.7 µM)
- MIC [7]: 100 µg/mL (≈ 195 µM)
- MIC (Proteus mirabilis A 1200): 6 µg/mL (≈ 11.7 µM)
- MIC [8]: 50 µg/mL (≈ 97.4 µM)
- MIC [9]: 0.5 µg/mL (≈ 0.974 µM)
- MIC [10]: 0.75 µg/mL (≈ 1.46 µM)
- MIC [11]: > 100 µg/mL
- MIC (Proteus rettgeri A 821): 0.75 µg/mL (≈ 1.46 µM)
- MIC [12]: 1.5 µg/mL (≈ 2.92 µM)
- MIC (Escherichia coli U 20): 25 µg/mL (≈ 48.7 µM)

SMILES: CCOS(=O)(=O)NC(=O)N[C@@H](C(=O)N[C@@H]1C(=O)N2[C@@H]1SC(C)(C)[C@@H]2C(=O)O)c1ccccc1 [VI, D-6-[α-{3-(ethoxysulfonyl)-ureido}-benzylcarbonamido]-penicillanic acid]
- MIC [1]: 0.25 µg/mL (≈ 0.499 µM)
- MIC (Proteus mirabilis H 3): 12.5 µg/mL (≈ 25 µM)
- MIC [2]: 25 µg/mL (≈ 49.9 µM)
- MIC [3]: 25 µg/mL (≈ 49.9 µM)
- MIC (Proteus morganii 2241): > 100 µg/mL
- MIC [4]: 50 µg/mL (≈ 99.9 µM)
- MIC [5]: 25 µg/mL (≈ 49.9 µM)
- MIC [6]: 12.5 µg/mL (≈ 25 µM)
- MIC [7]: > 100 µg/mL
- MIC (Proteus mirabilis A 1200): 1.5 µg/mL (≈ 3 µM)
- MIC [8]: 25 µg/mL (≈ 49.9 µM)
- MIC (Salmonella dublin P 43): 6 µg/mL (≈ 12 µM)
- MIC [13]: 6 µg/mL (≈ 12 µM)
- MIC [9]: > 100 µg/mL
- MIC [10]: 0.25 µg/mL (≈ 0.499 µM)
- MIC [11]: 100 µg/mL (≈ 200 µM)
- MIC (Proteus rettgeri A 821): 1.5 µg/mL (≈ 3 µM)
- MIC [14]: 6 µg/mL (≈ 12 µM)
- MIC [12]: 1.5 µg/mL (≈ 3 µM)
- MIC (Escherichia coli U 20): 12.5 µg/mL (≈ 25 µM)

SMILES: CC(C)N(C(C)C)S(=O)(=O)NC(=O)N[C@@H](C(=O)N[C@@H]1C(=O)N2[C@@H]1SC(C)(C)[C@@H]2C(=O)O)c1ccccc1 [VIII, D-6-[α-{3-(diisopropylaminosulfonyl)-ureido}-benzylcarbonamido]-penicillanic acid]
- MIC [1]: 1 µg/mL (≈ 1.8 µM)
- MIC (Proteus mirabilis H 3): 100 µg/mL (≈ 180 µM)
- MIC [2]: 6 µg/mL (≈ 10.8 µM)
- MIC [3]: 50 µg/mL (≈ 90 µM)
- MIC (Proteus morganii 2241): 100 µg/mL (≈ 180 µM)
- MIC [5]: 50 µg/mL (≈ 90 µM)
- MIC [7]: 25 µg/mL (≈ 45 µM)
- MIC (Proteus mirabilis A 1200): 50 µg/mL (≈ 90 µM)
- MIC [8]: 100 µg/mL (≈ 180 µM)
- MIC (Salmonella dublin P 43): 25 µg/mL (≈ 45 µM)
- MIC [13]: 6 µg/mL (≈ 10.8 µM)
- MIC [9]: 6 µg/mL (≈ 10.8 µM)
- MIC [10]: 0.25 µg/mL (≈ 0.45 µM)
- MIC [11]: 100 µg/mL (≈ 180 µM)
- MIC (Proteus rettgeri A 821): 25 µg/mL (≈ 45 µM)
- MIC [14]: 1 µg/mL (≈ 1.8 µM)
- MIC [12]: 1 µg/mL (≈ 1.8 µM)
- MIC (Escherichia coli U 20): 25 µg/mL (≈ 45 µM)

SMILES: CC1(C)S[C@@H]2[C@H](NC(=O)[C@H](NC(=O)NS(=O)(=O)Nc3cccnc3)c3ccccc3)C(=O)N2[C@H]1C(=O)O [XI, D-6-[α-{3-(pyrid-3-ylaminosulfonyl)-ureido}-benzylcarbonamido]-penicillanic acid]
- MIC [1]: 0.25 µg/mL (≈ 0.456 µM)
- MIC (Proteus mirabilis H 3): < 0.75 µg/mL
- MIC [2]: 6 µg/mL (≈ 10.9 µM)
- MIC [3]: 50 µg/mL (≈ 91.1 µM)
- MIC (Proteus morganii 2241): > 100 µg/mL
- MIC [5]: 50 µg/mL (≈ 91.1 µM)
- MIC [7]: > 100 µg/mL
- MIC [8]: > 100 µg/mL
- MIC (Salmonella dublin P 43): 50 µg/mL (≈ 91.1 µM)
- MIC [9]: 0.5 µg/mL (≈ 0.911 µM)
- MIC [10]: 0.12 µg/mL (≈ 0.219 µM)
- MIC [11]: > 100 µg/mL
- MIC (Proteus rettgeri A 821): 3 µg/mL (≈ 5.47 µM)
- MIC [14]: 0.25 µg/mL (≈ 0.456 µM)
- MIC [12]: 3 µg/mL (≈ 5.47 µM)
- MIC (Escherichia coli U 20): > 100 µg/mL

SMILES: Cc1cc(NS(=O)(=O)NC(=O)N[C@@H](C(=O)N[C@@H]2C(=O)N3[C@@H]2SC(C)(C)[C@@H]3C(=O)O)c2ccccc2)no1 [XII, D-6-[α-{3-(5-methylisoxazol-3-yl-aminosulfonyl)-ureido}-benzylcarbonamido]-penicillanic acid]
- MIC [1]: 1.5 µg/mL (≈ 2.71 µM)
- MIC (Proteus mirabilis H 3): 6 µg/mL (≈ 10.9 µM)
- MIC [2]: 25 µg/mL (≈ 45.2 µM)
- MIC [3]: 25 µg/mL (≈ 45.2 µM)
- MIC (Proteus morganii 2241): 50 µg/mL (≈ 90.5 µM)
- MIC [4]: 25 µg/mL (≈ 45.2 µM)
- MIC [5]: 25 µg/mL (≈ 45.2 µM)
- MIC [6]: 25 µg/mL (≈ 45.2 µM)
- MIC [7]: 50 µg/mL (≈ 90.5 µM)
- MIC (Proteus mirabilis A 1200): 1.5 µg/mL (≈ 2.71 µM)
- MIC [8]: 25 µg/mL (≈ 45.2 µM)
- MIC (Salmonella dublin P 43): 12.5 µg/mL (≈ 22.6 µM)
- MIC [13]: 12.5 µg/mL (≈ 22.6 µM)
- MIC [9]: 1.5 µg/mL (≈ 2.71 µM)
- MIC [10]: 1.5 µg/mL (≈ 2.71 µM)
- MIC [11]: 100 µg/mL (≈ 181 µM)
- MIC (Proteus rettgeri A 821): 6 µg/mL (≈ 10.9 µM)
- MIC [12]: 3 µg/mL (≈ 5.43 µM)
- MIC (Escherichia coli U 20): 25 µg/mL (≈ 45.2 µM)

SMILES: CC1(C)S[C@@H]2[C@H](NC(=O)[C@H](NC(=O)NS(=O)(=O)N3CCOCC3)c3ccccc3)C(=O)N2[C@H]1C(=O)O [XIV, D-6-[α-{3-(morpholino-sulfonyl)-ureido}-benzylcarbonamido]-penicillanic acid]
- MIC [1]: 1.5 µg/mL (≈ 2.77 µM)
- MIC (Proteus mirabilis H 3): 6 µg/mL (≈ 11.1 µM)
- MIC [2]: 25 µg/mL (≈ 46.2 µM)
- MIC [3]: 100 µg/mL (≈ 185 µM)
- MIC (Proteus morganii 2241): 100 µg/mL (≈ 185 µM)
- MIC [4]: 25 µg/mL (≈ 46.2 µM)
- MIC [5]: 50 µg/mL (≈ 92.3 µM)
- MIC [6]: 25 µg/mL (≈ 46.2 µM)
- MIC [7]: 100 µg/mL (≈ 185 µM)
- MIC (Proteus mirabilis A 1200): 3 µg/mL (≈ 5.54 µM)
- MIC [8]: 100 µg/mL (≈ 185 µM)
- MIC (Salmonella dublin P 43): 50 µg/mL (≈ 92.3 µM)
- MIC [13]: 12.5 µg/mL (≈ 23.1 µM)
- MIC [9]: 0.25 µg/mL (≈ 0.462 µM)
- MIC [10]: 3 µg/mL (≈ 5.54 µM)
- MIC [11]: 100 µg/mL (≈ 185 µM)
- MIC (Proteus rettgeri A 821): 1.5 µg/mL (≈ 2.77 µM)
- MIC [12]: 6 µg/mL (≈ 11.1 µM)
- MIC (Escherichia coli U 20): 50 µg/mL (≈ 92.3 µM)

SMILES: CC1(C)S[C@@H]2[C@H](NC(=O)[C@H](NC(=O)NS(N)(=O)=O)c3ccccc3)C(=O)N2[C@H]1C(=O)O [XVI, D-6-[α-{3-(aminosulfonyl)-ureido}-benzylcarbonamido]-penicillanic acid]
- MIC [1]: 0.5 µg/mL (≈ 1.06 µM)
- MIC (Proteus mirabilis H 3): 50 µg/mL (≈ 106 µM)
- MIC [2]: 6 µg/mL (≈ 12.7 µM)
- MIC [3]: 50 µg/mL (≈ 106 µM)
- MIC (Proteus morganii 2241): > 100 µg/mL
- MIC [4]: 25 µg/mL (≈ 53 µM)
- MIC [5]: 50 µg/mL (≈ 106 µM)
- MIC [6]: 25 µg/mL (≈ 53 µM)
- MIC [7]: > 100 µg/mL
- MIC (Proteus mirabilis A 1200): 25 µg/mL (≈ 53 µM)
- MIC [8]: > 100 µg/mL
- MIC (Salmonella dublin P 43): 100 µg/mL (≈ 212 µM)
- MIC [13]: 6 µg/mL (≈ 12.7 µM)
- MIC [9]: 0.5 µg/mL (≈ 1.06 µM)
- MIC [10]: 0.12 µg/mL (≈ 0.254 µM)
- MIC [11]: > 100 µg/mL
- MIC (Proteus rettgeri A 821): 25 µg/mL (≈ 53 µM)
- MIC [12]: 3 µg/mL (≈ 6.36 µM)
- MIC (Escherichia coli U 20): 100 µg/mL (≈ 212 µM)

SMILES: CC1(C)S[C@@H]2[C@H](NC(=O)[C@H](NS(N)(=O)=O)c3ccccc3)C(=O)N2[C@H]1C(=O)O [XVIII, D-6-[α-(aminosulfonylamino)-benzylcarbonamido]-penicillanic acid]
- MIC [1]: 0.5 µg/mL (≈ 1.17 µM)
- MIC (Proteus mirabilis H 3): 12.5 µg/mL (≈ 29.2 µM)
- MIC [2]: 1.5 µg/mL (≈ 3.5 µM)
- MIC [3]: > 100 µg/mL
- MIC (Proteus morganii 2241): 25 µg/mL (≈ 58.3 µM)
- MIC [4]: 12.5 µg/mL (≈ 29.2 µM)
- MIC [5]: 50 µg/mL (≈ 117 µM)
- MIC [6]: 6 µg/mL (≈ 14 µM)
- MIC [7]: > 100 µg/mL
- MIC (Proteus mirabilis A 1200): 6 µg/mL (≈ 14 µM)
- MIC [8]: 12.5 µg/mL (≈ 29.2 µM)
- MIC (Salmonella dublin P 43): 6 µg/mL (≈ 14 µM)
- MIC [13]: 3 µg/mL (≈ 7 µM)
- MIC [9]: 0.5 µg/mL (≈ 1.17 µM)
- MIC [10]: 0.06 µg/mL (≈ 0.14 µM)
- MIC [11]: > 100 µg/mL
- MIC (Proteus rettgeri A 821): 1.5 µg/mL (≈ 3.5 µM)
- MIC [12]: 0.5 µg/mL (≈ 1.17 µM)
- MIC (Escherichia coli U 20): 12.5 µg/mL (≈ 29.2 µM)
